Reference: ChEMBL document CHEMBL1201862, “PubChem BioAssay data set” (2004)
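The compound was tested at five concentrations on cells cultured in 96-well plates, with a 48-hour exposure period. At the GI50, growth is halved.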 Calls of active or inactive are those of the source. No stated cut-off is given here; in the data, active = GI50 up to about 1.1 µM and inactive = higher.

Key:
Assay in all cases: growth of human tumour cells (NCI), 48 h
786-0 = system: 786-0
A498 = system: A498
A549 = system: A549
BT-549 = system: BT-549
DU-145 = system: DU-145
K562 = system: K562
KM12 = system: KM12
MCF7 = system: MCF7
MDA-MB-231 = system: MDA-MB-231
NCI-H226 = system: NCI-H226
NCI-H460 = system: NCI-H460
NCI-H522 = system: NCI-H522
OVCAR-5 = system: OVCAR-5
SF-268 = system: SF-268
SF-539 = system: SF-539
SK-MEL-5 = system: SK-MEL-5
SK-OV-3 = system: SK-OV-3
SNB-75 = system: SNB-75
T47D = system: T47D

SMILES	GI50 (786-0)	GI50 (A498)	GI50 (A549)	GI50 (BT-549)	GI50 (DU-145)	GI50 (K562)	GI50 (KM12)	GI50 (MCF7)	GI50 (MDA-MB-231)	GI50 (NCI-H226)	GI50 (NCI-H460)	GI50 (NCI-H522)	GI50 (OVCAR-5)	GI50 (SF-268)	GI50 (SF-539)	GI50 (SK-MEL-5)	GI50 (SK-OV-3)	GI50 (SNB-75)	GI50 (T47D)
COC1CC(C)(NC(C)=O)C2OC(c3ccccc3)OCC2O1 (stereo not drawn)	> 100 µM (inactive)	> 100 µM (inactive)	> 100 µM (inactive)	> 100 µM (inactive)	> 100 µM (inactive)	> 100 µM (inactive)	> 100 µM (inactive)	> 100 µM (inactive)	> 100 µM (inactive)	> 100 µM (inactive)	> 100 µM (inactive)	> 100 µM (inactive)	> 100 µM (inactive)	> 100 µM (inactive)	> 100 µM (inactive)	> 100 µM (inactive)	> 100 µM (inactive)	> 100 µM (inactive)	> 100 µM (inactive)
CC(=O)NC1C(OCC(=O)NCCNc2ccc([N+](=O)[O-])c3[nH]c4ccccc4c(=O)c23)C(O)C(CO)OC1(C)OCc1ccccc1 (stereo not drawn)	> 100 µM (inactive)	> 100 µM (inactive)	> 100 µM (inactive)	> 100 µM (inactive)	> 100 µM (inactive)	> 100 µM (inactive)	> 100 µM (inactive)	> 100 µM (inactive)	> 100 µM (inactive)	> 100 µM (inactive)	50.4 µM (inactive)	> 100 µM (inactive)	> 100 µM (inactive)	> 100 µM (inactive)	> 100 µM (inactive)	> 100 µM (inactive)	> 100 µM (inactive)	> 100 µM (inactive)	> 100 µM (inactive)
O=Cc1ccc2c(c1)CC1(C2)Cc2ccc3c(c2C1)CCC3 (stereo not drawn)	14.4 µM (inactive)	23.8 µM (inactive)	37.8 µM (inactive)	5.05 µM (inactive)	22.1 µM (inactive)	6.34 µM (inactive)	11.4 µM (inactive)	4.43 µM (inactive)	3.76 µM (inactive)	16.3 µM (inactive)	17.2 µM (inactive)	34.8 µM (inactive)	> 44.9 µM (inactive)	12.9 µM (inactive)	9.02 µM (inactive)	4.81 µM (inactive)	18.2 µM (inactive)	7.24 µM (inactive)	18.2 µM (inactive)
CCOC(=O)/C=C(\C(=O)OCC)n1cc(C)c(=O)n(Cc2cn(CCCCOC(C)=O)nn2)c1=O	4.43 µM (inactive)	18.9 µM (inactive)	19.4 µM (inactive)	10.5 µM (inactive)	19.8 µM (inactive)	2.53 µM (inactive)	18.5 µM (inactive)	5.47 µM (inactive)	15.7 µM (inactive)	11.3 µM (inactive)	8.18 µM (inactive)	1.41 µM (inactive)	12.4 µM (inactive)	14.2 µM (inactive)	1.95 µM (inactive)	17.1 µM (inactive)	32.4 µM (inactive)	15.7 µM (inactive)	11.6 µM (inactive)
COc1ccccc1-c1cc(=O)c2ccc(OC)c(OC)c2o1	89.1 µM (inactive)	37.8 µM (inactive)	45.6 µM (inactive)	76.9 µM (inactive)	55.5 µM (inactive)	> 100 µM (inactive)		45.9 µM (inactive)	> 100 µM (inactive)	> 100 µM (inactive)	49.5 µM (inactive)	32.8 µM (inactive)	> 100 µM (inactive)	> 100 µM (inactive)	> 100 µM (inactive)	27.7 µM (inactive)	66.7 µM (inactive)	70.5 µM (inactive)	19.3 µM (inactive)
CN(C)CCN1Nc2c3ccccc3nc3c(C(=O)NCCCN(C)CCCNC(=O)c4ccc5c6c(c7ccccc7nc46)NN5CCN(C)C)ccc1c23	< 0.01 µM (active)	0.0659 µM (active)	< 0.01 µM (active)	0.178 µM (active)	0.0217 µM (active)	< 0.01 µM (active)	< 0.01 µM (active)	< 0.01 µM (active)	0.0581 µM (active)	0.0187 µM (active)	< 0.01 µM (active)	< 0.01 µM (active)	0.0322 µM (active)	0.0112 µM (active)	0.257 µM (active)	0.0147 µM (active)	< 0.01 µM (active)	< 0.01 µM (active)	0.153 µM (active)
